Data: ChEMBL document CHEMBL4840364, “Penicisteckins A-F, Isochroman-Derived Atropisomeric Dimers from Penicillium steckii HNNU-5B18” (J Nat Prod, 2021)
≈ marks a conversion by molar mass, not a printed value.

tested on: SH-SY5Y; experiment: Cytotoxicity against human SH-SY5Y cells assessed as inhibition of cell viability measured for 48 hrs by CCK colorimetric assay; type: functional, cell-based; settings: not given

SMILES	IC50 [µM]
COc1cc(O)c(C)c2c1CO[C@@H](C)C2	< 10
COC1=CC(=O)C(C)=C(C[C@@H](C)O)C1=O	< 10
COc1c2c(c(C)c(O)c1-c1c(O)c(C)c3c(c1OC)CO[C@@H](C)C3)C[C@H](C)OC2 (atropisomer aR)	< 10
COc1cc(O)c(-c2c(O)c(C)c3c(c2OC)CO[C@@H](C)C3)c2c1CO[C@@H](C)C2 (atropisomer aS)	< 10
COC1=C(c2c(O)cc(OC)c3c2C[C@H](C)OC3)C(=O)C(C)=C(C[C@@H](C)O)C1=O (atropisomer aS)	< 10

tested on: C6; experiment: Cytotoxicity against rat C6 cells assessed as inhibition of cell viability measured for 48 hrs by CCK colorimetric assay; type: functional, cell-based; settings: C6, 48 h

SMILES	IC50 [µM]
COc1cc(O)c(C)c2c1CO[C@@H](C)C2	< 10
COC1=CC(=O)C(C)=C(C[C@@H](C)O)C1=O	< 10
COc1c2c(c(C)c(O)c1-c1c(O)c(C)c3c(c1OC)CO[C@@H](C)C3)C[C@H](C)OC2 (atropisomer aR)	< 10
COc1cc(O)c(-c2c(O)c(C)c3c(c2OC)CO[C@@H](C)C3)c2c1CO[C@@H](C)C2 (atropisomer aS)	< 10
COC1=C(c2c(O)cc(OC)c3c2C[C@H](C)OC3)C(=O)C(C)=C(C[C@@H](C)O)C1=O (atropisomer aS)	< 10

tested on: Staphylococcus aureus; experiment: Antibacterial activity against Staphylococcus aureus ATCC 29213 assessed as bacterial growth inhibition incubated for 20 hrs by broth micro dilution method; type: functional; settings: not given

SMILES	MIC [µg/mL]
COC1=CC(=O)C(C)=C(C[C@@H](C)O)C1=O	2 (≈ 9.51 µM)

tested on: Staphylococcus aureus; experiment: Antibacterial activity against methicillin-resistant Staphylococcus aureus assessed as bacterial growth inhibition incubated for 20 hrs by broth micro dilution method; type: functional; settings: not given

SMILES	MIC [µg/mL]
COC1=CC(=O)C(C)=C(C[C@@H](C)O)C1=O	8 (≈ 38.1 µM)

tested on: HGC-27; experiment: Cytotoxicity against human HGC-27 cells assessed as inhibition of cell viability measured for 48 hrs by CCK colorimetric assay; type: functional, cell-based; settings: HGC-27, 48 h

SMILES	IC50 [µM]
COc1cc(O)c(C)c2c1CO[C@@H](C)C2	< 10
COC1=CC(=O)C(C)=C(C[C@@H](C)O)C1=O	< 10
COc1c2c(c(C)c(O)c1-c1c(O)c(C)c3c(c1OC)CO[C@@H](C)C3)C[C@H](C)OC2 (atropisomer aR)	< 10
COc1cc(O)c(-c2c(O)c(C)c3c(c2OC)CO[C@@H](C)C3)c2c1CO[C@@H](C)C2 (atropisomer aS)	< 10
COC1=C(c2c(O)cc(OC)c3c2C[C@H](C)OC3)C(=O)C(C)=C(C[C@@H](C)O)C1=O (atropisomer aS)	< 10
